These results are taken from the supplement of paper PMC10307832.

Structures are written as SMILES.

The first assay relates to NCI-H2085. Put plainly: relative viability (nuclei count vs DMSO), 5 days (fraction); higher = more cells survive. The settings on record: first compound 2 µM. In a few lines: (§1)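 A single step with final 0.05% Triton X-100, 1% formaldehyde and 1 ug/ml Hoechst fixed the cells and stained nuclei 5 days after treatment. Lung cancer cell lines in 1536-well plates had been treated by pin tool the day after seeding with one drug alone or a fixed anchor-drug dose plus five library-drug doses (not always all listed) in √10 steps, and nuclei were counted on 4× images. Relative viability is the ratio of nuclei in treated wells to nuclei in vehicle wells, taken as the median of duplicate plates.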
Regarding `COCC1(CO)C(=O)C2CCN1CC2` (stereo unspecified) [PRIMA-1MET] + CC(=O)Nc1cccc(-n2c(=O)n(C3CC3)c(=O)c3c(Nc4ccc(I)cc4F)n(C)c(=O)c(C)c32)c1 [Trametinib] (partner 0.02 µM), the relative viability turned out to be 0.508.

`COCC1(CO)C(=O)C2CCN1CC2` (stereo unspecified) [PRIMA-1MET] + Nc1ncn([C@H]2C[C@H](O)[C@@H](CO)O2)c(=O)n1 [Decitabine] (partner 2 µM): the relative viability turned out to be 0.526.

Staying with this assay, now noted: first compound 6.325 µM.
As to `COCC1(CO)C(=O)C2CCN1CC2` (stereo unspecified) [PRIMA-1MET] + COc1cc2c(Oc3ccc(NC(=O)C4(C(=O)Nc5ccc(F)cc5)CC4)cc3F)ccnc2cc1OCCCN1CCOCC1 [Foretinib] (partner 0.25 µM), the relative viability was determined as 0.53.

The molecule `COCC1(CO)C(=O)C2CCN1CC2` (stereo unspecified) [PRIMA-1MET] + NC(=O)Nc1cc(-c2cccc(F)c2)sc1C(=O)N[C@H]1CCCNC1 [AZD7762] (partner 0.2 µM) had a relative viability of 0.942.

`COCC1(CO)C(=O)C2CCN1CC2` (stereo unspecified) [PRIMA-1MET] + Nc1nc2[nH]cc(CCc3ccc(C(=O)N[C@@H](CCC(=O)O)C(=O)O)cc3)c2c(=O)[nH]1 [Pemetrexed] (partner 0.2 µM): the relative viability was found to be 0.862.

On to `COCC1(CO)C(=O)C2CCN1CC2` (stereo unspecified) [PRIMA-1MET] + CC(=O)Nc1cccc(-n2c(=O)n(C3CC3)c(=O)c3c(Nc4ccc(I)cc4F)n(C)c(=O)c(C)c32)c1 [Trametinib] (partner 0.02 µM), for which the relative viability is 0.427.

On to `COCC1(CO)C(=O)C2CCN1CC2` (stereo unspecified) [PRIMA-1MET] + Nc1ncn([C@H]2C[C@H](O)[C@@H](CO)O2)c(=O)n1 [Decitabine] (partner 2 µM), for which the relative viability turned out to be 0.526.

Staying with this assay, now noted: first compound 20 µM.
The molecule `COCC1(CO)C(=O)C2CCN1CC2` (stereo unspecified) [PRIMA-1MET] + COc1cc2c(Oc3ccc(NC(=O)C4(C(=O)Nc5ccc(F)cc5)CC4)cc3F)ccnc2cc1OCCCN1CCOCC1 [Foretinib] (partner 0.25 µM) returned a relative viability of 0.122.

With `COCC1(CO)C(=O)C2CCN1CC2` (stereo unspecified) [PRIMA-1MET] + NC(=O)Nc1cc(-c2cccc(F)c2)sc1C(=O)N[C@H]1CCCNC1 [AZD7762] (partner 0.2 µM), the relative viability was 0.176.

Turning to `COCC1(CO)C(=O)C2CCN1CC2` (stereo unspecified) [PRIMA-1MET] + Nc1nc2[nH]cc(CCc3ccc(C(=O)N[C@@H](CCC(=O)O)C(=O)O)cc3)c2c(=O)[nH]1 [Pemetrexed] (partner 0.2 µM), the relative viability was 0.165.

In turn, `COCC1(CO)C(=O)C2CCN1CC2` (stereo unspecified) [PRIMA-1MET] + CC(=O)Nc1cccc(-n2c(=O)n(C3CC3)c(=O)c3c(Nc4ccc(I)cc4F)n(C)c(=O)c(C)c32)c1 [Trametinib] (partner 0.02 µM) came in with a relative viability of 0.141.

Take `COCC1(CO)C(=O)C2CCN1CC2` (stereo unspecified) [PRIMA-1MET] + Nc1ncn([C@H]2C[C@H](O)[C@@H](CO)O2)c(=O)n1 [Decitabine] (partner 2 µM): the relative viability amounted to 0.198.

Another assay has as its system NCI-H23. The assay is described as above. Conditions: first compound 0.2 µM. In a few lines:
as §1
The molecule `COCC1(CO)C(=O)C2CCN1CC2` (stereo unspecified) [PRIMA-1MET] + COc1cc2c(Oc3ccc(NC(=O)C4(C(=O)Nc5ccc(F)cc5)CC4)cc3F)ccnc2cc1OCCCN1CCOCC1 [Foretinib] (partner 0.25 µM) yielded a relative viability of 1.09.

On to `COCC1(CO)C(=O)C2CCN1CC2` (stereo unspecified) [PRIMA-1MET] + NC(=O)Nc1cc(-c2cccc(F)c2)sc1C(=O)N[C@H]1CCCNC1 [AZD7762] (partner 0.2 µM), for which the relative viability was found to be 0.212.

Regarding `COCC1(CO)C(=O)C2CCN1CC2` (stereo unspecified) [PRIMA-1MET] + Nc1nc2[nH]cc(CCc3ccc(C(=O)N[C@@H](CCC(=O)O)C(=O)O)cc3)c2c(=O)[nH]1 [Pemetrexed] (partner 0.2 µM), the relative viability stood at 0.425.

For `COCC1(CO)C(=O)C2CCN1CC2` (stereo unspecified) [PRIMA-1MET] + CC(=O)Nc1cccc(-n2c(=O)n(C3CC3)c(=O)c3c(Nc4ccc(I)cc4F)n(C)c(=O)c(C)c32)c1 [Trametinib] (partner 0.02 µM), the relative viability turned out to be 0.281.

`COCC1(CO)C(=O)C2CCN1CC2` (stereo unspecified) [PRIMA-1MET] + Nc1ncn([C@H]2C[C@H](O)[C@@H](CO)O2)c(=O)n1 [Decitabine] (partner 2 µM) registered a relative viability of 0.277.

Staying with this assay, now noted: first compound 0.6325 µM.
With `COCC1(CO)C(=O)C2CCN1CC2` (stereo unspecified) [PRIMA-1MET] + COc1cc2c(Oc3ccc(NC(=O)C4(C(=O)Nc5ccc(F)cc5)CC4)cc3F)ccnc2cc1OCCCN1CCOCC1 [Foretinib] (partner 0.25 µM), the relative viability amounted to 1.

For the molecule `COCC1(CO)C(=O)C2CCN1CC2` (stereo unspecified) [PRIMA-1MET] + NC(=O)Nc1cc(-c2cccc(F)c2)sc1C(=O)N[C@H]1CCCNC1 [AZD7762] (partner 0.2 µM), the relative viability is 0.225.

As to `COCC1(CO)C(=O)C2CCN1CC2` (stereo unspecified) [PRIMA-1MET] + Nc1nc2[nH]cc(CCc3ccc(C(=O)N[C@@H](CCC(=O)O)C(=O)O)cc3)c2c(=O)[nH]1 [Pemetrexed] (partner 0.2 µM), the relative viability came to 0.595.

`COCC1(CO)C(=O)C2CCN1CC2` (stereo unspecified) [PRIMA-1MET] + CC(=O)Nc1cccc(-n2c(=O)n(C3CC3)c(=O)c3c(Nc4ccc(I)cc4F)n(C)c(=O)c(C)c32)c1 [Trametinib] (partner 0.02 µM) displayed a relative viability of 0.37.

The molecule `COCC1(CO)C(=O)C2CCN1CC2` (stereo unspecified) [PRIMA-1MET] + Nc1ncn([C@H]2C[C@H](O)[C@@H](CO)O2)c(=O)n1 [Decitabine] (partner 2 µM) gave a relative viability of 0.221.

Still in this assay, the particulars now being: first compound 2 µM.
Regarding `COCC1(CO)C(=O)C2CCN1CC2` (stereo unspecified) [PRIMA-1MET] + COc1cc2c(Oc3ccc(NC(=O)C4(C(=O)Nc5ccc(F)cc5)CC4)cc3F)ccnc2cc1OCCCN1CCOCC1 [Foretinib] (partner 0.25 µM), the relative viability is 0.861.

On to `COCC1(CO)C(=O)C2CCN1CC2` (stereo unspecified) [PRIMA-1MET] + NC(=O)Nc1cc(-c2cccc(F)c2)sc1C(=O)N[C@H]1CCCNC1 [AZD7762] (partner 0.2 µM), for which the relative viability came to 0.231.

Regarding `COCC1(CO)C(=O)C2CCN1CC2` (stereo unspecified) [PRIMA-1MET] + Nc1nc2[nH]cc(CCc3ccc(C(=O)N[C@@H](CCC(=O)O)C(=O)O)cc3)c2c(=O)[nH]1 [Pemetrexed] (partner 0.2 µM), the relative viability turned out to be 0.443.

Take `COCC1(CO)C(=O)C2CCN1CC2` (stereo unspecified) [PRIMA-1MET] + CC(=O)Nc1cccc(-n2c(=O)n(C3CC3)c(=O)c3c(Nc4ccc(I)cc4F)n(C)c(=O)c(C)c32)c1 [Trametinib] (partner 0.02 µM): the relative viability was found to be 0.273.

The molecule `COCC1(CO)C(=O)C2CCN1CC2` (stereo unspecified) [PRIMA-1MET] + Nc1ncn([C@H]2C[C@H](O)[C@@H](CO)O2)c(=O)n1 [Decitabine] (partner 2 µM) returned a relative viability of 0.282.

Staying with this assay, now noted: first compound 6.325 µM.
`COCC1(CO)C(=O)C2CCN1CC2` (stereo unspecified) [PRIMA-1MET] + COc1cc2c(Oc3ccc(NC(=O)C4(C(=O)Nc5ccc(F)cc5)CC4)cc3F)ccnc2cc1OCCCN1CCOCC1 [Foretinib] (partner 0.25 µM): the relative viability worked out at 0.966.

As to `COCC1(CO)C(=O)C2CCN1CC2` (stereo unspecified) [PRIMA-1MET] + NC(=O)Nc1cc(-c2cccc(F)c2)sc1C(=O)N[C@H]1CCCNC1 [AZD7762] (partner 0.2 µM), the relative viability worked out at 0.209.

In the case of `COCC1(CO)C(=O)C2CCN1CC2` (stereo unspecified) [PRIMA-1MET] + Nc1nc2[nH]cc(CCc3ccc(C(=O)N[C@@H](CCC(=O)O)C(=O)O)cc3)c2c(=O)[nH]1 [Pemetrexed] (partner 0.2 µM), the relative viability was 0.579.

The molecule `COCC1(CO)C(=O)C2CCN1CC2` (stereo unspecified) [PRIMA-1MET] + CC(=O)Nc1cccc(-n2c(=O)n(C3CC3)c(=O)c3c(Nc4ccc(I)cc4F)n(C)c(=O)c(C)c32)c1 [Trametinib] (partner 0.02 µM) displayed a relative viability of 0.328.
